pEC50, pIC50: −log10 of the molar value. “And” between values parts separate entries of the source, which are not always exact repeats. Equal values may be shown once. Read-outs that look alike come from different tables or passages of the source.
Tests used:
MCL1/Bim = MCL1/Bim (Homo sapiens (Human), UniProt Q07820); assay: MCL1/Bim Binding AlphaLISA Assay; details: recombinant human 6xHis-MCL1 (171-327), biotinylated Bim peptide (51-76)
Description: MCL1/Bim Binding AlphaLISA Assay.
Inhibition of the MCL1 and Bim interaction was measured in the following AlphaLISA assay.
Recombinant human MCL1 protein (C-terminal 6×His Tagged MCL1 containing residues 171-327) was generated at Gilead Sciences, Inc. (Foster City, Calif.). A biotinylated peptide derived from human Bim (residues 51-76) was purchased from CPC Scientific (Sunnyvale, Calif.). (CPC 834113). AlphaLISA anti-6His- acceptor beads (AL128R), AlphaScreen Streptavidin donor beads (6760002B), and Proxiplate-384 Plus (6008289) were purchased from PerkinElmer.
The AlphaLISA assay was performed in a 384-well Proxiplate in a total volume of […]. The reaction mixture contained 0.0625 nM 6×His-MCL1 (171-327), 0.0625 nM biotinylated-Bim peptide, 10 μg/mL AlphaLISA anti-6×His-AlphaLISA acceptor beads, 40 μg/mL AlphaScreen streptavidin donor beads, and serially diluted test compounds in the binding buffer (20 mM Hepes, pH 7.5 (Teknova H1035); 150 mM NaCl (Promega V4221); 0.002% Brij 35 (Thermo Scientific 20150); 1 mM Dithiothreitol (DTT) Solution (Affymetrix 70726); 0.01% BSA (BioLabs B9000S)). 1,000× test compounds were pre-spotted onto 384-well Proxiplate (Labcyte Echo) by Echo 555 Liquid Handler (Labcyte Inc., San Jose, Calif.) followed by incubation of 5 μL MCL1(171-327) for 1 hour. Then 5 μL Bim (51-76) was added and incubated for 2 hours. Five μL AlphaLISA anti-6His-AlphaLISA acceptor beads were then added for 1 hour followed by addition of 5 μL AlphaScreen streptavidin donor beads for 1 hour. The reaction plates were then read on an Envision multimode reader (PerkinElmer) using AlphaScreen settings. Percent inhibition was calculated as shown below: % Inhibition=100%*(Well−Neg)/(Pos−Neg) Neg: negative control, DMSO Pos: positive control, no MCL1 protein, no biotinylated-Bim peptide

SKBR3 cells = assay: SKBR3 Cell Viability Assay; assay type: cell-based; details: CellTiter Glo, read-out: MCL1 CV SKBR3 EC50
Description: SKBR3 Cell Viability Assay Materials
SKBR3 Cells (ATCC HTB-30) were obtained from ATCC (Manassas, Va.) and cultured in McCoy 5A's medium (ATCC 30-2007)+10% fetal bovine serum (SH30071.03, HyClone, Pittsburgh, Pa.) plus 1× Penicillin-Streptomycin L-glutamine (Corning 30-009-CI, Corning, N.Y.).
The cell viability assay was conducted in a 384-well tissue culture plate (Grenier 781086, Monroe, N.C.) in a total volume of 70 μL. Test compounds were prepared in 1,000×, serially diluted, and pre-spotted into 384-well tissue culture plate by Echo 555 Liquid Handler (Labcyte Inc., San Jose, Calif.). Seventy μL of 6,000 SKBR3 cells were dispensed into each well of the plate and incubated at 37° C. with 5% CO2 for 72 hours. At the end of incubation, 2× CellTiter Glo (CTG) reagents (1 part buffer with 2 parts substrate) (Promega, Madison, Wis.) were prepared, and the plate and the reagent were equilibrated to room temperature for 30 minutes. CTG reagent was added to each plate by Biomek FX at 20 μL/well with 5 times pipetting and mixing to induce cell lysis. Luminescence was read by Envision multimode reader (PerkinElmer). Percent inhibition was calculated as followed: % Inhibition=100%*(Well−Neg)/(Pos−Neg) Neg, negative control, DMSO Pos, positive control, 10 μM Puromycin

[1] = Homo sapiens, SK-BR-3, 72 hours

Sequence of MCL1/Bim (Q07820 171-327): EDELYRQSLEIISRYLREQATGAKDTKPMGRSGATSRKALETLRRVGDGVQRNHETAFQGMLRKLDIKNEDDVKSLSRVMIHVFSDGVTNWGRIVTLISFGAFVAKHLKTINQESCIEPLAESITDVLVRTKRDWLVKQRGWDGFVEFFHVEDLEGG

Compound | pIC50 (MCL1/Bim) | pEC50 (SKBR3 cells; 72 hours) | pEC50 (SKBR3 cells; [1])
CC[C@@H]1CC/C=C/[C@H](OC)[C@@H]2CC[C@H]2CN2C[C@@]3(CCCc4cc(Cl)ccc43)COc3ccc(cc32)C(=O)/[N+]([O-])=[S@]\1NC(=O)c1cn(C)nc1OC [Example 41] | 9.84 | 6.90 | –
COc1nn(C)cc1C(=O)N[S@@]1(=O)=NC(=O)c2ccc3c(c2)N(C[C@@H]2CC[C@H]2[C@@H](OC(=O)CCC2CCOCC2)/C=C/C[C@H](C)C1)C[C@@]1(CCCc2cc(Cl)ccc21)CO3 [Example 56] | 9.80 | – | 7.03
COc1ncc2c(N[S@@]3(=O)=NC(=O)c4ccc5c(c4)N(C[C@@H]4CC[C@H]4[C@@H](OC)/C=C/C[C@H](C)C3)C[C@@]3(CCCc4cc(Cl)ccc43)CO5)ncnc2n1 [Example 22] | 9.92 | – | 6.77
COc1nn(C)cc1C(=O)N[S@@]1(=O)=NC(=O)c2ccc3c(c2)N(C[C@@H]2CC[C@H]2[C@H](OC)/C=C/[C@H](OC(C)=O)[C@H](C)[C@H]1C)C[C@@]1(CCCc2cc(Cl)ccc21)CO3 [Example 92] | 8.59 | 6.10 | –
CCn1ccc(OC[C@H]2C/C=C/[C@H](OC)[C@@H]3CC[C@H]3CN3C[C@@]4(CCCc5cc(Cl)ccc54)COc4ccc(cc43)C(=O)N=[S@@](=O)(NC(=O)COC3CCOCC3)C2)n1 [Example 46] | 9.28 | 5.80 | –
CO[C@H]1/C=C/CCC[S@@](=O)(Nc2ncnc3nn(C)cc23)=NC(=O)c2ccc3c(c2)N(C[C@@H]2CC[C@H]21)C[C@@]1(CCCc2cc(Cl)ccc21)CO3 [Example 26] | 9.65 and 9.63 | – | 6.93
COc1nn(C)cc1C(=O)N[S@@]1(=O)=NC(=O)c2ccc3c(c2)N(C[C@@H]2CC[C@H]2[C@@H](OC)/C=C/[C@H](Oc2ccccn2)[C@H](C)C1)C[C@@]1(CCCc2cc(Cl)ccc21)CO3 [Example 77] | 9.04 | – | 6.32
COc1nn(C)cc1C(=O)N[S@@]1(=O)=NC(=O)c2ccc3c(c2)N(C[C@@H]2CC[C@H]2[C@@H](OCCN2CCN(C4COC4)CC2)/C=C/C[C@H](C)C1)C[C@@]1(CCCc2cc(Cl)ccc21)CO3 [Example 60] | 10.15 | – | 7.72
CCn1cc(C(=O)N[S@@]2(=O)=NC(=O)c3ccc4c(c3)N(C[C@@H]3CC[C@H]3[C@@H](OC)/C=C/C[C@H](C)[C@H]2C)C[C@]2(CO4)C[C@@H]3C[C@@H]3c3cc(Cl)ccc32)cn1 [Example 170] | 9.81 | – | 6.95
CO[C@H]1/C=C/C[C@H](C)C[S@@](=O)(NC(=O)c2cnn(C)c2)=NC(=O)c2ccc3c(n2)N(C[C@@H]2CC[C@H]21)C[C@@]1(CCCc2cc(Cl)ccc21)CO3 [Example 185] | 10.40 | – | 7.76
CNc1nc(N[S@@]2(=O)=NC(=O)c3ccc4c(c3)N(C[C@@H]3CC[C@H]3[C@@H](OC)/C=C/C[C@H](C)C2)C[C@@]2(CCCc3cc(Cl)ccc32)CO4)c2cn(C)nc2n1 [Example 18] | 10.38 | – | 7.71
CO[C@@H]1/C=C\C[C@H](C)C[S@@](=O)(Nc2ncnc3nn(C)cc23)=NC(=O)c2ccc3c(c2)N(C[C@@H]2CC[C@H]21)C[C@@]1(CCCc2cc(Cl)ccc21)CO3 [Example 27] | 9.99 | – | 7.40
CCO/C1=C/C[C@H](OC)[C@@H]2CC[C@H]2CN2C[C@@]3(CCCc4cc(Cl)ccc43)COc3ccc(cc32)C(=O)N=[S@](=O)(NC(=O)c2cn(C)nc2OC)[C@H](C)[C@H]1C [Example 158] | 8.41 | 5.71 | –
COc1nn(C)cc1C(=O)N[S@@]1(=O)=NC(=O)c2ccc3c(c2)N(C[C@@H]2CC[C@H]2[C@@](O)(CC(=O)N2CCN(C)CC2)/C=C/C[C@H](C)C1)C[C@@]1(CCCc2cc(Cl)ccc21)CO3 [Example 100] | 10.42 | 7.45 | –
COc1nn(C)cc1C(=O)N[S@@]1(=O)=NC(=O)c2ccc3c(c2)N(C[C@@H]2CC[C@H]2[C@@H](OC)[C@H]2CN(C)[C@H]4CO[C@H](C(C)C1)[C@@H]24)C[C@@]1(CCCc2cc(Cl)ccc21)CO3 (stereo partly shown) [Example 134] | 10.16 | 7.00 | –
CO[C@H]1/C=C/C[C@H](C)[C@@H](C)[S@@](=O)(NC(=O)c2cnn(C)c2)=NC(=O)c2ccc3c(c2)N(C[C@@H]2CC[C@H]21)C[C@]1(CO3)SCCc2cc(Cl)ccc21 [Example 180] | 10.22 | – | 7.60
C[C@H]1C/C=C/[C@H](O)[C@@H]2CC[C@H]2CN2C[C@@]3(CCCc4cc(Cl)ccc43)COc3ccc(cc32)C(=O)N=[S@](=O)(Nc2ncnc3nn(C)cc23)C1 [Example 29] | 10.42 | – | 7.82
CO[C@H]1/C=C/C[C@H](C)C[S@@](=O)(NC(=O)c2cc3n(c2)CCOC3)=NC(=O)c2ccc3c(c2)N(C[C@@H]2CC[C@H]21)C[C@]1(CO3)SCCc2cc(Cl)ccc21 [Example 179] | 10.15 | – | 7.62
COc1nn(C)cc1C(=O)N[S@@]1(=O)=NC(=O)c2ccc3c(c2)N(C[C@@H]2CC[C@H]2[C@](O)(CC(=O)N2CCN(C4COC4)CC2)/C=C/C[C@H](C)C1)C[C@@]1(CCCc2cc(Cl)ccc21)CO3 [Example 105] | 9.95 | 6.79 | –
C[C@@H]1[C@@H](C)C/C=C/[C@H](O)[C@@H]2CC[C@H]2CN2C[C@@]3(CCCc4cc(Cl)ccc43)COc3ccc(cc32)C(=O)N=[S@]1(=O)Nc1ncnc2nn(C)cc12 [Example 34] | 10.06 | – | 7.60
CO[C@H]1/C=C/C[C@H](C)[C@@H](C)[S@@](=O)(NC(=O)c2cc3n(c2)CCOC3)=NC(=O)c2ccc3c(c2)N(C[C@@H]2CC[C@H]21)C[C@]1(CO3)SCCc2cc(Cl)ccc21 [Example 181] | 9.57 | – | 7.24
COc1nn(C)cc1C(=O)N[S@@]1(=O)=NC(=O)c2ccc3c(c2)N(C[C@@H]2CC[C@H]2[C@@H](OC)/C=C/[C@@](C)(OC)[C@H](C)C1)C[C@@]1(CCCc2cc(Cl)ccc21)CO3 [Example 122] | 10.52 | – | 7.75
CCn1cc(C(=O)N[S@@]2(=O)=NC(=O)c3ccc4c(c3)N(C[C@@H]3CC[C@H]3[C@@H](OC)/C=C/C[C@H](C)C2)C[C@]2(CO4)SCCc3cc(Cl)ccc32)cn1 [Example 178] | 10.30 | – | 7.59
CO[C@H]1/C=C/C[C@H](C)C[S@@](=O)(NC(=O)NC2CC2)=NC(=O)c2ccc3c(c2)N(C[C@@H]2CC[C@H]21)C[C@]1(CO3)C[C@@H]2C[C@@H]2c2cc(Cl)ccc21 [Example 166] | 9.77 | – | 6.72
COc1nn(C)cc1C(=O)N[S@@]1(=O)=NC(=O)c2ccc3c(c2)N(C[C@@H]2CC[C@H]2/C=C/[C@H]2OCCO[C@@H]2[C@H](C)C1)C[C@@]1(CCCc2cc(Cl)ccc21)CO3 [Example 154] | 9.49 | 5.83 | –
COc1nn(C)cc1C(=O)N[S@@]1(=O)=NC(=O)c2ccc3c(n2)N(C[C@@H]2CC[C@H]2[C@@H](OC)/C=C/[C@H](OC)[C@H](C)C1)C[C@@]1(CCCc2cc(Cl)ccc21)CO3 [Example 198] | 10.30 | 7.65 | –
COc1nn(C)cc1C(=O)N[S@@]1(=O)=NC(=O)c2ccc3c(c2)N(C[C@@H]2CC[C@H]2[C@](CN2CCN4CCOC[C@@H]4C2)(OC)/C=C/C[C@H](C)C1)C[C@@]1(CCCc2cc(Cl)ccc21)CO3 [Example 111] | 9.68 | – | 7.58
COc1nn(C)cc1C(=O)N[S@@]1(=O)=NC(=O)c2ccc3c(c2)N(C[C@@H]2CC[C@H]2[C@@H](OCCN2CC(N(C)C)C2)/C=C/C[C@H](C)C1)C[C@@]1(CCCc2cc(Cl)ccc21)CO3 [Example 58] | 10.01 | 7.42 | –
COc1nn(C)cc1C(=O)N[S@@]1(=O)=NC(=O)c2ccc3c(c2)N(C[C@@H]2CC[C@H]2[C@@](O)(CC(=O)N2CC(N4CCOCC4)C2)/C=C/C[C@H](C)C1)C[C@@]1(CCCc2cc(Cl)ccc21)CO3 [Example 106] | 10.42 | 6.88 | –

Source: patent US11667652B2, “MCL1 inhibitors” (Gilead Sciences, Inc., priority 2019, dated 2023)
